The structures appear in SMILES notation. Where two headings read alike, the source gives them in different places. Starred links: 1 amine or outer side, 2 acyl side, 3 side chain; linkers in the order of their positions; H or OH if unused. Non-standard residues stand in square brackets, D forms with d. Residues, ends and D or L forms follow the SMILES beside them. *: point of attachment. dBip = N[C@H](Cc1ccc(-c2ccccc2)cc1)C(=O)O; Oic = O=C(O)[C@@H]1C[C@@H]2CCCC[C@@H]2N1; Phe(4-Cl) = N[C@@H](Cc1ccc(Cl)cc1)C(=O)O; γGlu = O=C(O)[C@H](CCC(=O)[*:2])N[*:1]; NMeR = CN[C@@H](CCCNC(=N)N)C(=O)O; Tridecanoyl = CCCCCCCCCCCCC(=O)*; hArg = N=C(N)NCCCC[C@H](N)C(=O)O; Cha = N[C@@H](CC1CCCCC1)C(=O)O; NMeL = CN[C@@H](CC(C)C)C(=O)O; β3hV = CC(C)[C@H](N)CC(=O)O; Nle = CCCC[C@H](N)C(=O)O; Orn = NCCC[C@H](N)C(=O)O; Pra = C#CC[C@H](N)C(=O)O; Deg = CCC(N)(CC)C(=O)O; AEEA = NCCOCCOCC(=O)O; βAla = NCCC(=O)O

In one data set the target is T1, rat APJ receptor (Rattus norvegicus, UniProt Q9JHG3).
T1 construct: expressed in transfected cells
T1 sequence (Q9JHG3 1-377): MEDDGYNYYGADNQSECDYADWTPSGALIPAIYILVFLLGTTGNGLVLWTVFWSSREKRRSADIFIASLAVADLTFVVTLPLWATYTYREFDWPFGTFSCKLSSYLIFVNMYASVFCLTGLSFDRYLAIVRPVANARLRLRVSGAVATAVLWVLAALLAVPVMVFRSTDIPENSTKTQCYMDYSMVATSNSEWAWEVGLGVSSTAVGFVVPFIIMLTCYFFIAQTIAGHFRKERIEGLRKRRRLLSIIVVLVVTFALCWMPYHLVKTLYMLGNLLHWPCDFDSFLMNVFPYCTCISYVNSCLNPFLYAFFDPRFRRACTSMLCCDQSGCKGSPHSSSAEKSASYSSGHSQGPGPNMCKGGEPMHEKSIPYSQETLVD
Kind of data set: [35S] GTPγS assay, rat APJ receptor. Type of data set: biochemical. As to the method: The membranes were incubated with modified peptides in the assay buffer. […] Bound [^35S] GTPγS was separated from free radiolabel by filtration. The filter bound radioactivity was determined by liquid scintillation counting.

The nature of data set [1]: In vitro stability in rat liver homogenate. The class given is in vitro ADME. Particulars: tissue homogenate. How it is done: (§1) Apelin peptides were spiked into rat plasma, liver homogenate, and kidney homogenate, which were obtained from commercial sources, to a final concentration of 5 μM. The samples were then incubated at 37° C. over a period of 4 hr. […] In a typical experiment, an aliquot of 100 μL of sample was taken from the incubation vial, followed by addition of 300 μL of MeOH containing internal standard. The quenched sample was centrifuged at 5500 g for 15 min after 15 min vortex in room temperature. The supernatant was then analyzed by high resolution LC-MS. […] In vitro plasma, […], and kidney stability results are shown below in Table 14.

The nature of data set [2]: In vitro stability in rat plasma. Type of data set: in vitro ADME. As to the method: as §1
Setting [3] is: Table 16, read-out: EC50 Rat APJ Receptor.

For the compound `C#CC[C@H](NC(=O)[C@H](CC(C)C)NC(=O)[C@H](CCCNC(=N)N)N(C)C(=O)[C@@H]1CCCN1C(=O)[C@H](CCCNC(=N)N)NC(=O)[C@H](CCC(N)=O)NC(=O)COCCOCCNC(=O)COCCOCCNC(=O)CC[C@H](NC(=O)CCCCCCCCCCCC)C(=O)O)C(=O)N[C@@H](Cc1c[nH]cn1)C(=O)N[C@@H](CCCCN)C(=O)NCC(=O)N1CCC[C@H]1C(=O)N[C@@H](CCCC)C(=O)N1CCC[C@H]1C(=O)N[C@@H](Cc1ccc(Cl)cc1)C(=O)O` [compound 450] ({Tridecanoyl-γGlu-AEEA-AEEA}-QRP[NMeR]L[Pra]HKGP[Nle]P[Phe(4-Cl)]-OH), on rat APJ receptor (setting [3]), the EC50 was determined as 0.313 nM.
In the case of `CCCC[C@H](NC(=O)[C@@H]1CCCN1C(=O)CNC(=O)[C@H](CCCCN)NC(=O)[C@H](Cc1c[nH]cn1)NC(=O)[C@H](CO)NC(=O)[C@H](CC1CCCCC1)NC(=O)[C@H](CCCCNC(=N)N)NC(=O)[C@@H]1CCCN1C(=O)[C@H](CCCNC(=N)N)NC(=O)[C@H](CCC(N)=O)NC(=O)[C@H](CCCCNC(=N)N)NC(=O)[C@H](CCCCNC(=N)N)NC(=O)[C@H](Cc1ccccc1)NC(=O)[C@H](CCCN)NC(C)=O)C(=O)N[C@@H](Cc1ccc(Cl)cc1)C(=O)O` [compound 48] (Ac-[Orn]F[hArg][hArg]QRP[hArg][Cha]SHKGP[Nle][Phe(4-Cl)]-OH), the EC50 on rat APJ receptor (read-out: EC50 Rat APJ Receptor) came out at 0.486 nM.
With `CCCC[C@H](NC(=O)[C@@H]1CCCN1C(=O)CNC(=O)[C@H](CCCCN)NC(=O)[C@H](Cc1c[nH]cn1)NC(=O)[C@H](CO)NC(=O)[C@H](CC(C)C)N(C)C(=O)[C@H](CCCNC(=N)N)N(C)C(=O)[C@@H]1CCCN1C(=O)[C@H](CCCNC(=N)N)NC(=O)[C@H](CCC(N)=O)NC(=O)[C@H](CCCNC(=N)N)NC(C)=O)C(=O)N1CCC[C@H]1C(=O)N[C@@H](Cc1ccc(Cl)cc1)C(=O)O` [compound 67] (Ac-RQRP[NMeR][NMeL]SHKGP[Nle]P[Phe(4-Cl)]-OH), the EC50 on rat APJ receptor (rat APJ receptor, read-out: EC50 Rat APJ Receptor) is 1.4 nM.
On to `CCCCCCCCCCCCC(=O)N[C@@H](CCC(=O)NCCOCCOCC(=O)NCCOCCOCC(=O)N[C@H](CCC(N)=O)C(=O)N[C@@H](CCCCNC(=N)N)C(=O)NC(CC)(CC)C(=O)N[C@H](CCCNC(=N)N)C(=O)N[C@@H](CC1CCCCC1)C(=O)N[C@@H](CO)C(=O)N[C@@H](Cc1c[nH]cn1)C(=O)N[C@@H](CCCCN)C(=O)NCC(=O)N1[C@H](C(=O)N[C@@H](CCCC)C(=O)N2CCC[C@H]2C(=O)N[C@@H](Cc2ccc(Cl)cc2)C(=O)O)C[C@@H]2CCCC[C@@H]21)C(=O)O` [compound 455] ({Tridecanoyl-γGlu-AEEA-AEEA}-[dQ][hArg][Deg][dR][Cha]SHKG[Oic][Nle]P[Phe(4-Cl)]-OH), for which the EC50 at rat APJ receptor (setting [3]) was found to be 10.3 nM.
As for `CCCC[C@H](NC(=O)[C@@H]1CCCN1C(=O)CNC(=O)[C@H](CCCCN)NC(=O)[C@H](Cc1c[nH]cn1)NC(=O)[C@H](CO)NC(=O)[C@H](CC(C)C)NC(=O)[C@H](CCCNC(=N)N)NC(=O)[C@@H]1CCCN1C(=O)[C@H](CCCNC(=N)N)NC(=O)[C@H](CCC(N)=O)NC(=O)[C@H](CCCNC(=N)N)NC(C)=O)C(=O)N1CCC[C@H]1C(=O)N[C@H](Cc1ccc(-c2ccccc2)cc1)C(=O)O` [compound 62] (Ac-RQRPRLSHKGP[Nle]P[dBip]-OH), the amount remaining at 4 h, 5 μM is below 1% in data set [1] and 6.3% in data set [2].
Consider `CCCCCCCCCCCCC(=O)N[C@@H](CCC(=O)NCCOCCOCC(=O)NCCOCCOCC(=O)N[C@@H](CCC(N)=O)C(=O)N[C@@H](CCCNC(=N)N)C(=O)N1CCC[C@H]1C(=O)N(C)[C@@H](CCCNC(=N)N)C(=O)N[C@@H](CC(C)C)C(=O)NCCC(=O)N[C@@H](Cc1c[nH]cn1)C(=O)N[C@@H](CCCCN)C(=O)NCC(=O)N1CCC[C@H]1C(=O)N[C@@H](CCCC)C(=O)N1CCC[C@H]1C(=O)N[C@@H](Cc1ccc(Cl)cc1)C(=O)O)C(=O)O` [compound 464] ({Tridecanoyl-γGlu-AEEA-AEEA}-QRP[NMeR]L[βAla]HKGP[Nle]P[Phe(4-Cl)]-OH), for which the fraction remaining at 4 h, 5 μM is below 1% in data set [1] and 21% in data set [2].
For `CCCCCCCCCCCCC(=O)N[C@@H](CCC(=O)NCCOCCOCC(=O)NCCOCCOCC(=O)N[C@@H](CCC(N)=O)C(=O)N[C@@H](CCCCNC(=N)N)C(=O)N1CCC[C@H]1C(=O)N(C)[C@@H](CCCNC(=N)N)C(=O)N[C@@H](CC(C)C)C(=O)N[C@@H](CO)C(=O)N[C@@H](Cc1c[nH]cn1)C(=O)N[C@@H](CCCCN)C(=O)NCC(=O)N1CCC[C@H]1C(=O)N[C@@H](CCCC)C(=O)N1CCC[C@H]1C(=O)N[C@@H](Cc1ccc(Cl)cc1)C(=O)O)C(=O)O` [compound 353], in that order: 0% and 20%.
As for `CCCCCCCCCCCCC(=O)N[C@@H](CCC(=O)NCCOCCOCC(=O)NCCOCCOCC(=O)N[C@@H](CCC(N)=O)C(=O)N[C@@H](CCCNC(=N)N)C(=O)N1CCC[C@H]1C(=O)N(C)[C@@H](CCCNC(=N)N)C(=O)N[C@@](C)(CC(C)C)C(=O)N[C@@H](CO)C(=O)N[C@@H](Cc1c[nH]cn1)C(=O)N[C@@H](CCCCN)C(=O)NCC(=O)N1CCC[C@H]1C(=O)N[C@@H](CCCC)C(=O)N1CCC[C@H]1C(=O)N[C@@H](Cc1ccc(Cl)cc1)C(=O)O)C(=O)O` [compound 457], the results for the share remaining at 4 h, 5 μM in data set [1] and in data set [2] were below 1% and 62%, respectively.
Taken in the same sequence, the figures for `CCCC[C@H](NC(=O)[C@@H]1CCCN1C(=O)CNC(=O)[C@H](CCCCN)NC(=O)[C@H](Cc1c[nH]cn1)NC(=O)[C@H](CO)NC(=O)[C@H](CC(C)C)NC(=O)[C@H](CCCNC(=N)N)N(C)C(=O)[C@@H]1CCCN1C(=O)[C@H](CCCNC(=N)N)NC(=O)[C@H](CCC(N)=O)NC(=O)COCCOCCNC(=O)COCCOCCNC(=O)CC[C@H](NC(=O)CCCCCCC(=O)O)C(=O)O)C(=O)N1CCC[C@H]1C(=O)N[C@@H](Cc1ccc(Cl)cc1)C(=O)O` [compound 508] were below 1% and below 1%.
In the case of `CCCCCCCCCCCCCCC(=O)N[C@@H](CCC(=O)NCCOCCOCC(=O)NCCOCCOCC(=O)N[C@@H](CCC(N)=O)C(=O)N[C@@H](CCCNC(=N)N)C(=O)N1CCC[C@H]1C(=O)N(C)[C@@H](CCCNC(=N)N)C(=O)N[C@@H](CC(C)C)C(=O)N[C@@H](CO)C(=O)N[C@@H](Cc1c[nH]cn1)C(=O)N[C@@H](CCCCN)C(=O)NCC(=O)N1CCC[C@H]1C(=O)N[C@@H](CCCC)C(=O)N1CCC[C@H]1C(=O)N[C@@H](Cc1ccc(Cl)cc1)C(=O)O)C(=O)O` [compound 495], the fraction remaining at 4 h, 5 μM is below 1% in data set [1] and 75% in data set [2].
As for `CCCCCCCCCCCCC(=O)N[C@@H](CCC(=O)NCCOCCOCC(=O)NCCOCCOCC(=O)N[C@@H](CCC(N)=O)C(=O)N[C@@H](CCCNC(=N)N)C(=O)N1CCC[C@H]1C(=O)N[C@@H](CCCCNC(=N)N)C(=O)N[C@@H](CC(C)C)C(=O)N[C@@H](CO)C(=O)N[C@@H](Cc1c[nH]cn1)C(=O)N[C@@H](CCCCN)C(=O)NCC(=O)N1CCC[C@H]1C(=O)N[C@@H](CCCC)C(=O)N1CCC[C@H]1C(=O)N[C@@H](Cc1ccc(Cl)cc1)C(=O)O)C(=O)O` [compound 355], the results for the fraction remaining at 4 h, 5 μM in data set [1] and in data set [2] were 0% and 64%, respectively.
For the compound `CCCCCCCCCCCCC(=O)N[C@@H](CCC(=O)NCCOCCOCC(=O)NCCOCCOCC(=O)N[C@@H](CCC(N)=O)C(=O)N[C@@H](CCCCNC(=N)N)C(=O)N1CCC[C@H]1C(=O)N(C)[C@@H](CCCNC(=N)N)C(=O)N[C@H](CC(=O)N[C@@H](CO)C(=O)N[C@@H](Cc1c[nH]cn1)C(=O)N[C@@H](CCCCN)C(=O)NCC(=O)N1CCC[C@H]1C(=O)N[C@@H](CCCC)C(=O)N1CCC[C@H]1C(=O)N[C@@H](Cc1ccc(Cl)cc1)C(=O)O)C(C)C)C(=O)O` [compound 383] ({Tridecanoyl-γGlu-AEEA-AEEA}-Q[hArg]P[NMeR][β3hV]SHKGP[Nle]P[Phe(4-Cl)]-OH), the share remaining at 4 h, 5 μM in data set [1] was below 1%; in data set [2] it was 31%.
Regarding `CSCC[C@H](NC(=O)[C@@H](N)CS)C(=O)N1CCC[C@H]1C(=O)N[C@@H](CC(C)C)C(=O)N[C@@H](Cc1cnc[nH]1)C(=O)N[C@@H](CO)C(=O)N[C@@H](CCCNC(=N)N)C(=O)N[C@H](C(=O)N1CCC[C@H]1C(=O)N[C@@H](Cc1ccccc1)C(=O)N1CCC[C@H]1C(=O)O)C(C)C` [compound 13], the fraction remaining at 4 h, 5 μM in data set [1] was below 1%; in data set [2], 7%.
For the compound `CCCCCCCCCCCCC(=O)N[C@@H](CCC(=O)NCCOCCOCC(=O)NCCOCCOCC(=O)N[C@@H](CCC(N)=O)C(=O)N[C@@H](CCCNC(=N)N)C(=O)N1CCC[C@H]1C(=O)N(C)[C@@H](CCCNC(=N)N)C(=O)N[C@@H](CC(C)C)C(=O)N[C@@H](CO)C(=O)N[C@@H](Cc1c[nH]cn1)C(=O)N[C@@H](CCCCN)C(=O)NCC(=O)N1CCC[C@H]1C(=O)N[C@@H](CCCC)C(=O)NCCC(=O)N[C@@H](Cc1ccc(Cl)cc1)C(=O)O)C(=O)O` [compound 425] ({Tridecanoyl-γGlu-AEEA-AEEA}-QRP[NMeR]LSHKGP[Nle][βAla][Phe(4-Cl)]-OH), the figures for the share remaining at 4 h, 5 μM in data set [1] and in data set [2] were below 1% and above 90%, respectively.

The values above are taken from patent publication US11807693B2 (priority 2014, dated 2023).
